Assay results taken from ChEMBL document CHEMBL1150517, “The structural feature of S1 subsite of carboxypeptidase A” (Bioorg Med Chem Lett, 1991).

Target: T1, Carboxypeptidase A1 (Bos taurus, UniProt P00730)
T1 sequence (P00730 whole entry): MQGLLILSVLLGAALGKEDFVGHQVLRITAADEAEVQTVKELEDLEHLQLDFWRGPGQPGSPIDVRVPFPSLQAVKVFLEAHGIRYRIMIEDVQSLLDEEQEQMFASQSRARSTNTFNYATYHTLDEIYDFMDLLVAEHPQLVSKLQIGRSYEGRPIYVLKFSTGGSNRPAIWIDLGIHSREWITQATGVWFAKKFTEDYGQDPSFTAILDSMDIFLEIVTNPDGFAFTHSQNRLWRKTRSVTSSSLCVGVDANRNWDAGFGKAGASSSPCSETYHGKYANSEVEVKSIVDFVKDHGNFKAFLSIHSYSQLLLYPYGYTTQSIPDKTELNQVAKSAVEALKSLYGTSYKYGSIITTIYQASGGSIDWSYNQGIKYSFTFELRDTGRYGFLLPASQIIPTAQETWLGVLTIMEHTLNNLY
Experiment: Binding affinity against carboxypeptidase A using hippurylphenylalanine as substrate

SMILES	Ki
O=C(O)C(CS)Cc1cc(F)c(F)c(F)c1 (configuration not stated)	590 nM
Cc1ccc(CC(CS)C(=O)O)cc1C (configuration not stated)	492 nM
O=C(O)C(CS)Cc1c(F)c(F)c(F)c(F)c1F (configuration not stated)	2300 nM
O=C(O)C(CS)Cc1ccc(F)c(F)c1 (configuration not stated)	250 nM
O=C(O)C(CS)CC1CCCCC1 (configuration not stated)	2350 nM
O=C(O)C(CS)Cc1ccc(F)cc1 (configuration not stated)	37 nM
O=C(O)C(CS)Cc1ccc2ccccc2c1 (configuration not stated)	200 nM
Cc1ccc(CC(CS)C(=O)O)cc1 (configuration not stated)	112 nM
CC(C)c1ccc(CC(CS)C(=O)O)cc1 (configuration not stated)	4500 nM
Cc1cccc(CC(CS)C(=O)O)c1C (configuration not stated)	350 nM
CC(C)(C)c1ccc(CC(CS)C(=O)O)cc1 (configuration not stated)	7700 nM
Cc1cccc(CC(CS)C(=O)O)c1 (configuration not stated)	170 nM
O=C(O)C(CS)Cc1ccccc1F (configuration not stated)	45 nM
O=C(O)C(CS)Cc1cccc2ccccc12 (configuration not stated)	480 nM
O=C(O)C(CS)Cc1cccc(F)c1 (configuration not stated)	35 nM
Cc1ccccc1CC(CS)C(=O)O (configuration not stated)	120 nM
O=C(O)C(CS)Cc1ccccc1 (configuration not stated)	11 nM
